Results: patent publication US10098830B2, “Oral care compositions” (BASF SE, priority 2014, dated 2018)
Where two headings read alike, the source gives them in different places.

How the values were obtained:
[1] = test system: S. mutans (ATCC #25175) biofilm; test: Substantivity: Streptococcus mutans biofilm growth after 24 hr on pre-treated hydroxyapatite surfaces; assay type: cell-based; details: pre-treated surface
Protocol: Method to evaluate the substantivity of polymers to hydroxyl apatite surfaces and the effects these polymers have on the growth of Streptococcus mutans and Saliva derived biofilms. For S. mutans Biofilms: S. mutans (ATCC #25175) is inoculated into 10 mL BHI and incubated statically at 37° C. overnight. […] Hydroxy apatite coated peg lids are pellicle treated with sterile artificial saliva 200 ul/per well of a 96 well clear plate for 30 minutes at 37° C. aerobic. The peg lids are transferred to a clear 96 well plate containing 200 ul of the designated treatments below in Jordan's with 5% sucrose. […] After 30 mins of treatment the two pegs are transferred to a 96 well plate containing 200 ul of water and it is rinsed for 10 min at 500 rpm. […] After incubation the peg lids are transferred to a rinse plate containing 200 ul of water for 5 minutes and then transferred to white 96 well plate containing 200 ul Bac-titer-Glo, this is shaken for 5 minutes and read for luminescence. Results: Polymers are evaluated using the substantivity for biofilm prevention method indicated above for both S. mutans and multispecies saliva derived biofilms.

[2] = test system: multispecies saliva derived biofilm; test: Substantivity: multispecies saliva derived biofilm growth after 24 hr on pre-treated hydroxyl apatite surfaces; assay type: cell-based, human saliva; details: for % decrease in biofilm as compared to growth control (negative indicates increased biofilm): saliva biofilm, 24 hr, pre-treated surface
Protocol: Method to evaluate the substantivity of polymers to hydroxyl apatite surfaces and the effects these polymers have on the growth of Streptococcus mutans and Saliva derived biofilms. For Multispecies Saliva Biofilms: Hydroxy apatite (HA) coated surfaces are pellicle treated with pooled human saliva 200 ul/per well of a 96 well clear plate for 30 minutes at 37° C. aerobically. […] The peg lids are transferred to a clear 96 well plate containing 200 ul of the designated treatments below in Jordan's with 5% sucrose. […] After 30 mins of treatment the two pegs are transferred to a 96 well plate containing 200 ul of water and it is rinsed for 10 min at 500 rpm. […] After incubation the peg lids are transferred to a rinse plate containing 200 ul of water for 5 minutes and then transferred to white 96 well plate containing 200 ul Bac-titer-Glo, this is shaken for 5 minutes and read for luminescence.

[3] = test system: 48 hour saliva biofilms; test: Disruption of established 48 hour saliva biofilms; assay type: cell-based, pooled human saliva; details: for Disruption of 48 hour saliva biofilms after treatment for 5 minutes: Chelate control: 0.1% Trilon Ca
Protocol: Method to screen combinations of actives, example polymers and chelates to identify potential synergies for biofilm disruption.
Polystyrene Pegs are pellicle treated with fresh pooled human saliva for 30 minutes at 37° C. aerobically. Saliva is inoculated into BHI broth at a final concentration of 10% saliva. 200 ul of inoculated or uninoculated media is added to each well. The pegs are added to the growth media and incubated anaerobically 37° C.
At 24 hr. the pegs are removed and transferred to a fresh plate containing 200 ul of sterile BHI. And incubated anaerobically for another 24 hr at 37 C.
After 48 hr of growth time, pegs containing the biofilms are transferred to a 96 well rinse plate containing 200 ul of or BHI. Following a 5 minute rinse at room temperature, the pegs are transferred to a treatment plate containing combinations of actives, chelate and polymers. This is followed a 5 minute treatment (shaking at 500 rpm). The treated pegs are transferred to a white 96 well plate containing 200 ul Bac-titer-Glo reagent—this is incubated at room temperature for 5 minutes (shaking) and read on a plate reader for luminescence.
Polymers are evaluated using the Biofilm disruption model as described above.
Example polymers (xylitol-EDTA polymer and xylitol-arginine-succinic acid polymer) are combined with example actives (epsilon-polylysine and chlorhexidine) and a chelator (Ca EDTA).

[4] = test system: S. mutans (ATCC #25175); test: Inhibition of bacterial acid production (Bromo Cresol Purple broth, OD 588 / OD 427); assay type: cell-based, Streptococcus mutans
Protocol: Method to observe the acid production of S. mutans in a medium containing a pH indicator and glucose. Observe how xylitol and the example polymers affect acid production. A culture of S. mutans (ATCC #25175) is grown statically overnight in 10 mL liquid broth (BHI) at 37° C. […] The no treatment control has 20 ul water added. To each experimental well 180 of the inoculated BCP broth is added. To the no inoculum control 20 ul water and 20 ul filter sterilized overnight culture broth are added. […] Both wavelengths are measured every hour for several hours but before evaporation became an issue. The plates are shaken for 10 seconds before reading.

[5] = test system: porcine esterase; test: Enzymatic degradation of xylitol polymer by esterase (pH change); assay type: in vitro ADME
Protocol: The method for determining enzymatic breakdown of polymer is determined by Sigma Quality Control Test Procedure: Enzymatic Assay of Esterase. This assay however, exchanges Ethyl Butyrate solution with solution of test polymer. pH change is monitored over time as an indicator of esterase activity and polymer degradation.
Degradation of example polymers is conducted using porcine esterase. Esterase activity decreases the pH of the solution. The pH is monitored at the start and end of the assay (90 minutes).

[6] = test system: S. mutans 25175 biofilm; test: Prevention of Streptococcus mutans biofilm development on hydroxy apatite pegs (Bac-titer-Glo); assay type: cell-based; details: 2% xylitol
Protocol: Prevention of Biofilm Development S. mutans Biofilms: S. mutans 25175 is inoculated into 10 mL BHI and incubated statically at 37° C. overnight. […] Hydroxy apatite coated peg lids are pellicle treated with sterile artificial saliva 200 ul/per well of a 96 well clear plate for 30 minutes at 37° C. aerobic. […] Test solutions are added to a desired final concentration and water is added to bring the final volume to 200 ul. […] Polymers are evaluated using the biofilm prevention method indicated above for both S. mutans and multispecies saliva derived biofilm.

[7] = test system: multispecies saliva biofilm; test: Prevention of multispecies saliva biofilm development on hydroxy apatite pegs (Bac-titer-Glo); assay type: cell-based, pooled human saliva; details: 2% xylitol
Protocol: Prevention of Biofilm Development Multispecies Saliva Biofilms: Hydroxy apatite (HA) coated surfaces of a 96 peg lid (Biosurface Technologies, Boseman, Mont.) are pellicle treated with pooled human saliva 200 μl/per well of a 96 well clear plate for 30 minutes at 37° C. aerobically. Into each well of the growth plate, clear 96 well plate, 160 μl inoculated Brain Heart Infusion (BHI) broth is added. Test solutions are added to a desired final concentration and water is added to bring the final volume to 200 μl. The hydroxyl apatite coated pegs are added to. […] Polymers are evaluated using the biofilm prevention method indicated above for both S. mutans and multispecies saliva derived biofilm.

## CCCCCCCCCCCCCCCC[n+]1ccccc1 [Cetylpyridinium chloride]
[1]; % treatment 0.070%
  % decrease in biofilm as compared to growth control (negative indicates increased biofilm): 100%
[2]; % treatment 0.070%
  % decrease in biofilm as compared to growth control (negative indicates increased biofilm): 98%

## [H]/N=C(\N/C(=N/[H])NCCCCCCNC(=N)NC(=N)Nc1ccc(Cl)cc1)Nc1ccc(Cl)cc1 [Chlorhexidine, chlorhexidine]
[3]; 0.06% Chlorhexidine
  Disruption of 48 hour saliva biofilms after treatment for 5 minutes: Active control: −10^

## O=C(O)CN(CCN(CC(=O)O)CC(=O)O)CC(=O)O [EDTA, ethylenediaminetetraacetic acid]
[1]; % treatment 0.083%
  % decrease in biofilm as compared to growth control (negative indicates increased biofilm): 13%
[1]; % treatment 0.165%
  % decrease in biofilm as compared to growth control (negative indicates increased biofilm): 37%
[1]; % treatment 0.330%
  % decrease in biofilm as compared to growth control (negative indicates increased biofilm): 44%
[1]; % treatment 0.660%
  % decrease in biofilm as compared to growth control (negative indicates increased biofilm): 46%
[1]; % treatment 1.320%
  % decrease in biofilm as compared to growth control (negative indicates increased biofilm): 41%
[4]
  effect on acid production of S. mutans (change of OD 588 / OD 427, pH), in words: no or little change
[2]; observations consistent for both S. mutans and saliva biofilms
  substantivity (retention of biofilm prevention activity after rinsing), in words: also substantive
[2]; % treatment 0.083%
  % decrease in biofilm as compared to growth control (negative indicates increased biofilm): 17%
[2]; % treatment 0.165%
  % decrease in biofilm as compared to growth control (negative indicates increased biofilm): 25%
[2]; % treatment 0.330%
  % decrease in biofilm as compared to growth control (negative indicates increased biofilm): 32%
[2]; % treatment 0.660%
  % decrease in biofilm as compared to growth control (negative indicates increased biofilm): 60%
[2]; % treatment 1.320%
  % decrease in biofilm as compared to growth control (negative indicates increased biofilm): 79%

## CCOC(C)=O [Ethyl Acetate]
[5]; 0.2% (positive control), porcine esterase, end of the assay (90 minutes)
  End pH: 5.00
[5]; 0.2% (positive control), porcine esterase, start of assay
  Start pH: 8.30

## N=C(N)NCCC[C@H](N)C(=O)O [L-Arginine]
[1]; % treatment 0.070%
  % decrease in biofilm as compared to growth control (negative indicates increased biofilm): −40%
[1]; % treatment 0.140%
  % decrease in biofilm as compared to growth control (negative indicates increased biofilm): −18%
[1]; % treatment 0.280%
  % decrease in biofilm as compared to growth control (negative indicates increased biofilm): −59%
[1]; % treatment 0.560%
  % decrease in biofilm as compared to growth control (negative indicates increased biofilm): −53%
[1]; % treatment 1.120%
  % decrease in biofilm as compared to growth control (negative indicates increased biofilm): −29%
[4]
  effect on acid production of S. mutans (change of OD 588 / OD 427, pH), in words: no acid inhibiting effects
[2]; % treatment 0.070%
  % decrease in biofilm as compared to growth control (negative indicates increased biofilm): −28%
[2]; % treatment 0.140%
  % decrease in biofilm as compared to growth control (negative indicates increased biofilm): −20%
[2]; % treatment 0.280%
  % decrease in biofilm as compared to growth control (negative indicates increased biofilm): −24%
[2]; % treatment 0.560%
  % decrease in biofilm as compared to growth control (negative indicates increased biofilm): −22%
[2]; % treatment 1.120%
  % decrease in biofilm as compared to growth control (negative indicates increased biofilm): 49%

## O=C([O-])CN(CCN(CC(=O)[O-])CC(=O)[O-])CC(=O)[O-].[Ca+2].[Na+].[Na+] [Trilon Ca]
[3]; Chlorhexidine / Xylitol-EDTA polymer series
  Disruption of 48 hour saliva biofilms after treatment for 5 minutes: Chelate control: −1
[3]; e-polylysine / Arginine-Xylitol-Succinic Acid Terpolymer series
  Disruption of 48 hour saliva biofilms after treatment for 5 minutes: Chelate control: −10

## OC[C@@H](O)[C@H](O)[C@@H](O)CO [Xylitol]
[6]
  percent reduction from the untreated control: −1%
[7]
  percent reduction from the untreated control: 17%
[4]
  effect on acid production of S. mutans (change of OD 588 / OD 427, pH), in words: acid inhibition at all concentrations tested

## O=C(O)CC(O)(CC(=O)O)C(=O)O [citric acid]
[4]
  effect on acid production of S. mutans (change of OD 588 / OD 427, pH), in words: no or little change

## O=C(O)CCC(=O)O [succinic acid]
[4]
  effect on acid production of S. mutans (change of OD 588 / OD 427, pH), in words: no or little change

## Xylitol-Carboxymethyl Cellulose Polymer
[5]
  End pH: 7.47
  Start pH: 8.37
  degradation by esterase, in words: degraded by the esterase
